Consider 16 compounds from patent US7884105B2, “Squaric acid derivatives as inhibitors of histone deacetylase” (Janssen Pharmaceutica, N.V., priority 2005, dated 2011).

Molecules are shown by their SMILES.

The first series concerns the target histone deacetylase (HeLa nuclear extracts). Nature of the series: In vitro assay for inhibition of histone deacetylase (HDAC Fluorescent Activity Assay, Fluor de Lys). It counts as biochemical. On the set-up: key: pIC50 = negative log of IC50. The note with it: HeLa nuclear extracts 60 μg/ml, 75 μM Fluor de Lys substrate, pH 7.4, 30 min. From the text: The in vitro assay for inhibition of histone deacetylase (see example C.1) measures the inhibition of HDAC enzymatic activity obtained with the compounds of formula (I).
The HDAC Fluorescent Activity Assay/Drug Discovery Kit of Biomol (cat. No: AK-500-0001) was used. The HDAC Fluorescent Activity Assay is based on the Fluor de Lys (Fluorogenic Histone deAcetylase Lysyl) substrate and developer combination. The Fluor de Lys substrate, comprises an acetylated lysine side chain. Deacetylation of the substrate sensitizes the substrate so that, in the second step, treatment with the Fluor de Lys developer produces a fluorophore.
HeLa nuclear extracts (supplier: Biomol) were incubated at 60 μg/ml with 75 μM of substrate. The Fluor de Lys substrate was added in a buffer containing 25 mM Tris, 137 mM NaCl, 2.7 mM KCl and 1 mM MgCl2.6H2O at pH 7.4. After 30 min, 1 volume of the developer was added. The fluorophore was excited with 355 nm light and the emitted light (450 nm) was be detected on a fluorometric plate reader.
For each experiment, controls (containing HeLa nuclear extract and buffer), a blank incubation (containing buffer but no HeLa nuclear extract) and samples (containing compound dissolved in DMSO and further diluted in buffer and HeLa nuclear extract) were run in parallel. In first instance, compounds were tested at a concentration of 10^−5M. […] All sample were tested 4 times. In each test the blank value was subtracted from both the control and the sample values. The control sample represented 100% of substrate deactylation. For each sample the fluorescence was expressed as a percentage of the mean value of the controls. When appropriate IC50-values (concentration of the drug, needed to reduce the amount of metabolites to 50% of the control) were computed using probit analysis for graded data. Herein the effects of test compounds are expressed as pIC50 (the negative log value of the IC50-value) (see Table F-2).
Consider `O=C(NO)c1cnc(N2CCN(c3c(NCC4CCN(Cc5ccccc5)C4)c(=O)c3=O)CC2)nc1` (stereo not drawn) [Compound 2], for which the “Enzymatic activity pIC50 C.1.” value amounted to 6.9.

As for `O=C(NO)c1cnc(N2CCN(c3c(NCCc4ccccn4)c(=O)c3=O)CC2)nc1` [Compound 11], the “Enzymatic activity pIC50 C.1.” value worked out at 7.0.

In the case of `O=C(NO)c1cnc(N2CCN(c3c(NC4CCCc5ccccc54)c(=O)c3=O)CC2)nc1` (stereo not drawn) [Compound 4], the “Enzymatic activity pIC50 C.1.” value is listed as 7.2.

On to `O=C(NO)c1cnc(N2CCN(c3c(Nc4cccc(-c5ccccc5)c4)c(=O)c3=O)CC2)nc1` [Compound 1], for which the “Enzymatic activity pIC50 C.1.” value came out at 7.7.

`CCN(CC)CCCNc1c(N2CCN(c3ncc(C(=O)NO)cn3)CC2)c(=O)c1=O` [Compound 6]: the “Enzymatic activity pIC50 C.1.” value is 7.2.

For `O=C(NO)c1cnc(N2CCN(c3c(NCC4(c5ccc(Cl)cc5)CC4)c(=O)c3=O)CC2)nc1` [Compound 8], the “Enzymatic activity pIC50 C.1.” value is recorded as 7.2.

Turning to `O=C(NO)c1cnc(N2CCN(c3c(NCCOc4ccccc4)c(=O)c3=O)CC2)nc1` [Compound 16], the “Enzymatic activity pIC50 C.1.” value is 7.3.

As for `O=C(NO)c1cnc(N2CCN(c3c(NCc4ccco4)c(=O)c3=O)CC2)nc1` [Compound 7], the “Enzymatic activity pIC50 C.1.” value is recorded as 7.2.

`O=C(NO)c1cnc(N2CCN(c3c(NCCCN4CCCC4=O)c(=O)c3=O)CC2)nc1` [Compound 15]: the “Enzymatic activity pIC50 C.1.” value stood at 6.8.

As for `CCCCCNc1c(N2CCN(c3ncc(C(=O)NO)cn3)CC2)c(=O)c1=O` [Compound 3], the “Enzymatic activity pIC50 C.1.” value worked out at 7.6.

For the compound `O=C(NO)c1cnc(N2CCN(c3c(NCCc4ccccc4)c(=O)c3=O)CC2)nc1` [Compound 10], the “Enzymatic activity pIC50 C.1.” value is listed as 7.1.

For `O=C(NO)c1cnc(N2CCN(c3c(NCCOc4cccc(Cl)c4)c(=O)c3=O)CC2)nc1` [Compound 5], the “Enzymatic activity pIC50 C.1.” value was 7.4.

As for `O=C(NO)c1cnc(N2CCN(c3c(NCc4cccnc4)c(=O)c3=O)CC2)nc1` [Compound 9], the “Enzymatic activity pIC50 C.1.” value is reported as 7.0.

In the case of `O=C(NO)c1cnc(N2CCN(c3c(NCc4cccc(C(F)(F)F)c4)c(=O)c3=O)CC2)nc1` [Compound 12], the “Enzymatic activity pIC50 C.1.” value was 7.2.

For the compound `O=C(NO)c1cnc(N2CCN(c3c(NCCNc4ccccc4)c(=O)c3=O)CC2)nc1` [Compound 14], the “Enzymatic activity pIC50 C.1.” value was determined as 6.9.

For the compound `COc1cc(CNc2c(N3CCN(c4ncc(C(=O)NO)cn4)CC3)c(=O)c2=O)cc(OC)c1OC` [Compound 13], the “Enzymatic activity pIC50 C.1.” value worked out at 7.4.

Test system in another series: not listed separately
Kind of series: Kinetic solubility in aqueous media (nephelometry). It counts as physicochemical. The note with it: aqueous buffer, kinetic from dmso stock; phosphate citrate buffer pH 7.4, dilution of 5 mM DMSO stock, turbidity by nephelometer; read-out: Solubility C.2. score. How it is done: The solubility of a compound measures the ability of a compound to stay in solution. DMSO-stock solutions are diluted with a single aqueous buffer solvent in 3 consecutive steps. For every dilution turbidity is measured with a nephelometer. (see example C.2).
In the first dilution step, 10 μl of a concentrated stock-solution of the active compound, solubilized in DMSO (5 mM), was added to 100 μl phosphate citrate buffer pH 7.4 and mixed. In the second dilution step, an aliquot (20 μl) of the first dilution step was further dispensed in 100 μl phosphate citrate buffer pH 7.4 and mixed. Finally, in the third dilution step, a sample (20 μl) of the second dilution step was further diluted in 100 μl phosphate citrate buffer pH 7.4 and mixed. All dilutions were performed in 96-well plates. Immediately after the last dilution step the turbidity of the three consecutive dilution steps were measured with a nephelometer. Dilution was done in triplicate for each compound to exclude occasional errors. Based on the turbidity measurements a ranking is performed into 3 classes. Compounds with high solubility obtained a score of 3 and for this compounds the first dilution is clear. Compounds with medium solubility obtained a score of 2. For these compounds the first dilution is unclear and the second dilution is clear. […]
One may read the solubility as the dissolved amount per volume that the medium holds. With `O=C(NO)c1cnc(N2CCN(c3c(NCc4ccco4)c(=O)c3=O)CC2)nc1` [Compound 7], the solubility was over 454 µM.

With `O=C(NO)c1cnc(N2CCN(c3c(NCc4cccc(C(F)(F)F)c4)c(=O)c3=O)CC2)nc1` [Compound 12], the solubility is over 454 µM.
